The test system of one test is Human tumor cells. Kind of test: Soft Agar Assay (anchorage-independent growth, colony count after MTT staining). Type of test: cell-based. The method, then: Anchorage-independent growth is a characteristic of tumorigenic cell lines. Human tumor cells can be suspended in growth medium containing 0.3% agarose and an indicated concentration of a farnesyl transferase inhibitor. The solution can be overlayed onto growth medium solidified with 0.6% agarose containing the same concentration of farnesyl transferase inhibitor as the top layer. After the top layer is solidified, plates can be incubated for 10-16 days at 37°C under 5% CO2 to allow colony outgrowth. After incubation, the colonies can be stained by overlaying the agar with a solution of MTT (3-[4,5-dimethyl-thiazol-2-yl]-2,5-diphenyltetrazolium bromide, Thiazolyl blue) (1 mg/mL in PBS). Colonies can be counted and the IC50's can be determined.

Test [1] concerns the target farnesyl protein transferase (Homo sapiens, UniProt P49354+P49356). As to the kind of experiment: FPT IC50 (inhibition of farnesyl protein transferase, in vitro enzyme assay). Type of test: biochemical. To be noted: procedures of WO 95/10516. As for the experimental part:
FPT IC50 (inhibition of farnesyl protein transferase, in vitro enzyme assay) was determined following the assay procedures described in WO 95/10516, published April 20, 1995. GGPT IC50 (inhibition of geranylgeranyl protein transferase, in vitro enzyme assay), Cell Mat Assay, COS Cell IC50 (Cell-Based Assay), and anti-tumor activity (in vivo anti-tumor studies) could be determined by the assay procedures described in WO 95/10516. The disclosure of WO 95/10516 is incorporated herein by reference thereto.

The mark [2] stands for this setting: colony outgrowth 10-16 days at 37°C under 5% CO2, read-out: Soft Agar IC50.

SMILES strings stand for the structures. Where two headings read alike, the source gives them in different places.

This passage reports IC50 results from patent EP1140904B1, “FARNESYL PROTEIN TRANSFERASE INHIBITORS” (SCHERING CORPORATION, priority 1998, dated 2000).

On to `CC(C)(C)OC(=O)N1CCN(C2c3ccc(Cl)cc3CCc3cc(Br)cnc32)CC1C(=O)N1CCCC(Cn2ccnc2)C1` (stereo not drawn) [Example 10], for which, in the test on Human tumor cells (setting [2]), the IC50 fell in the range of 0.5 to 30 nM.

As to `CC(C)OC(=O)N1CCN(C2c3ccc(Cl)cc3CCc3cc(Br)cnc32)CC1C(=O)N1CCCC(Cn2ccnc2)C1` (stereo not drawn) [Example 14], in the test with Human tumor cells (setting [2]), the IC50 lay in the range of 0.5 to 30 nM.

As for `O=C(C1CN(C2c3ccc(Cl)cc3CCc3cc(Br)cnc32)CCN1C(=O)OC1CCCCC1)N1CCCC(Cn2ccnc2)C1` (stereo not drawn) [Example 15], the IC50 in the test on Human tumor cells (setting [2]) fell in the range of 0.5 to 30 nM.

In the case of `CC(C)(C)NC(=O)N1CCN(C2c3ccc(Cl)cc3CCc3cc(Br)cnc32)CC1C(=O)N1CCCC(Cn2ccnc2)C1` (stereo not drawn) [Example 16], in the test with Human tumor cells (setting [2]), the IC50 was in the range of 0.5 to 30 nM.

Consider `CC(C)NC(=O)N1CCN([C@@H]2c3ccc(Cl)cc3CCc3cc(Br)cnc32)C[C@@H]1C(=O)N1CCC[C@@H](Cn2ccnc2)C1` [Example 17], for which the IC50 in the test with Human tumor cells (setting [2]) was in the range of 0.5 to 30 nM.

Take `CC(C)(C)NC(=O)N1CCN([C@@H]2c3ccc(Cl)cc3CCc3cc(Br)cnc32)C[C@@H]1C(=O)N1CCC[C@H](Cn2ccnc2)C1` [Example 18]: the IC50 in the test on Human tumor cells (setting [2]) fell in the range of 0.5 to 30 nM.

For `CC(C)OC(=O)N1CCN([C@@H]2c3ccc(Cl)cc3CCc3cc(Br)cnc32)C[C@@H]1C(=O)N1CCC[C@H](Cn2ccnc2)C1` [Example 19], in the test on Human tumor cells (setting [2]), the IC50 lay within 0.5 to 30 nM.

For the compound `CC(C)(C)OC(=O)N1CCN(C2c3ccc(Cl)cc3CCc3cc(Br)cnc32)C[C@@H]1C(=O)N1CCCCC1CCn1ccnc1` (stereo partly drawn) [Example 74, 1,1-DIMETHYLETHYL-4-(3-BROMO-8-CHLORO-6,11-DIHYDRO-5H-BENZO[5,6]CYCLOHEPTA[1,2-b]PYRIDIN-11-YL)-2(R)-[[2-[2-(1H-IMIDAZOL-1-YL)ETHYL]-1-PIPERIDINYL]CARBONYL]-1-PIPERAZINECARBOXYLATE], the results for the IC50 (with Human tumor cells (read-out: Soft Agar IC50); in test [1]) were 0.5 to 30 nM and 0.04 to 2.7 nM, respectively.

Take `CC(C)(C)OC(=O)N1CCN([C@H]2c3ccc(Cl)cc3CCc3cc(Br)cnc32)C[C@@H]1C(=O)N1CCCCC1CCn1ccnc1` (stereo partly drawn) [Example 138, 1,1-DIMETHYLETHYL 4-(3-BROMO-8-CHLORO-6,11-DIHYDRO-5H-BENZO[5,6]CYCLOHEPTA[1,2-b]PYRIDIN-11(S)-YL)-2(R)-[[2-[2-(1H-IMIDAZOL-1-YL)ETHYL]-1-PIPERIDINYL]CARBONYL]-1-PIPERAZINECARBOXYLATE]: the IC50 lay in the range of 0.5 to 30 nM with Human tumor cells (read-out: Soft Agar IC50) and 0.04 to 2.7 nM in test [1].

With `CC(C)(C)OC(=O)N1CCN(C2c3ccc(Cl)cc3CCc3cc(Br)cnc32)C[C@@H]1C(=O)N1CCCCC1CCCn1ccnc1` (stereo partly drawn) [Example 145, 1,1-DIMETHYLETHYL 4-(3-BROMO-8-CHLORO-6,11-DIHYDRO-5H-BENZO[5,6]CYCLOHEPTA[1,2-b]PYRIDIN-11-YL)-2(R)-[[2-[3-(1H-IMIDAZOL-1-YL)PROPYL]-1-PIPERIDINYL]CARBONYL]-1-PIPERAZINECARBOXYLATE], the IC50 was in the range of 0.5 to 30 nM in the test on Human tumor cells (read-out: Soft Agar IC50) and 0.04 to 2.7 nM in test [1].

Turning to `Cc1cn(CC2CCCN(C(=O)C3CN(C4c5ccc(Cl)cc5CCc5cc(Br)cnc54)CCN3C(=O)Cc3ccc(F)cc3)C2)cn1` (stereo not drawn) [Example 197], the IC50 lay within 0.05 to 30 nM with Human tumor cells (setting [2]) and 0.04 to 2.7 nM in test [1].

As for `Cc1cn(CC2CCCN(C(=O)C3CN(C4c5ccc(Cl)cc5CCc5ccc[n+]([O-])c54)CCN3C(=O)OC3CCCCC3)C2)cn1` (stereo not drawn) [Example 387], the IC50 fell in the range of 0.05 to 30 nM with Human tumor cells (setting [2]) and 0.04 to 2.7 nM in test [1].

Turning to `Cc1cn(CC2CCCN(C(=O)C3CN(C4c5ccc(Cl)cc5CCc5cccnc54)CCN3C(=O)OCC(C)(C)C)C2)cn1` (stereo not drawn) [Example 411], the values for the IC50 (with Human tumor cells (setting [2]); in test [1]) were 0.05 to 30 nM and 0.04 to 2.7 nM, respectively.

`Cc1cn(C[C@@H]2CCCN(C(=O)[C@H]3CN(C4c5ccccc5CCc5ccccc54)CCN3C(=O)OC3CCCCC3)C2)cn1` [Example 414]: the IC50 in the test with Human tumor cells (setting [2]) was in the range of 0.05 to 30 nM; in test [1], 0.04 to 2.7 nM.

For orientation: IC50 means the concentration that inhibits the measured activity by half.
